Data published in patent US8895695B2, “Template-fixed beta-hairpin peptidomimetics with CXCR4 antagonizing activity” (priority 2003, dated 2014).

What was measured:
[1] = tested on: human red blood cells (hRBC); test: Hemolysis; format: cell-based
Method in brief: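 Washed fresh human erythrocytes (20% v/v, about 0.9×10^9 cells/ml final) incubated with peptide at 100 μM for 1 h at 37° C. Supernatant diluted 20-fold and OD540 read. Percent hemolysis relative to 0.1% Triton X-100 in H2O (100%), with PBS alone as 0%.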

[2] = tested on: CCRF-CEM cells; test: Chemotactic assay (cell migration assay); format: cell-based; conditions: 1 nM SDF-1, 4 hours
Procedure: All fine chemicals came from Merck (Darmstadt, Germany).
2.7. Chemotactic Assay (Cell Migration Assay)
The chemotactic response of CCRF-CEM cells to a gradient of stromal cell-derived factor 1α (SDF-1) was measured using disposable assay plates from Neuroprobe (5μ pore size) (Gaithersburg, Md.), according to the manufacturer's directions and references therein [especially ref. 8, below]. Briefly, one 175 cm^2 flask was washed once with Dubecco's phosphate buffered saline (DPBS), and trypsinized for 10 minutes or until cells had lifted. The trypsin was neutralized by the addition of fresh medium containing serum and the cells were pelleted, washed once in DPBS, and resuspended at 1-0.5×10^7 cells/ml in RPMI+0.5% bovine serum albumin (BSA). 45 μl of cell suspension were mixed with 5 μl of 10-fold concentrated PEM peptide diluted in the same assay medium. […] The optical absorbance at 595 nm (ABS595) was read using a Tecan Genios plate reader with Magellan software. The number of cells migrated was determined by comparing ABS595 values against a standard curve generated with a known number of cells in the assay plate and were plotted against SDF-1 concentration to obtain a sigmoidal curve and to determine the IC50 values. The values for IC50 were determined using the Trendline function in Microsoft Excel by fitting a logarithmic curve to the averaged datapoints.

[3] = Pharmacokinetic study (PK) after single i.v. and i.p. administration; format: in vivo, male CD-1 mice
Procedure: 2.9. Pharmacokinetic Study (PK)
30 grams (±20%) male CD-1 mice obtained from Charles River Laboratories Deutschland GmbH were used in the study. The vehicle, physiological saline, was added to give a final concentration of 1 mg/ml of the compounds. […] Approximately 250-300 μl of blood was removed under light isoflurane anesthesia from the retro-orbital plexus at predetermined time intervals (0, 5, 15, 30 min and 1, 2 and 3 hours for the i.v. study and 0, 15, 30 min and 1, 2, 4 and 8 hours for the i.p. study) and added to heparinized tubes. Plasma was removed from pelleted cells upon centrifugation and frozen at −80° C. prior to HPLC-MS analysis.
Preparation of the Plasma Calibration Samples
“Blank” mouse plasma from untreated animals was used. […] The OASIS® HLB cartridges were conditioned with 1 ml of methanol and then with 1 ml of 1% NH3 in water. Samples were then diluted with 700 μl of 1% NH3 in water and loaded.
The plate was washed with 1 ml of methanol/1% NH3 in water 5/95. Elution was performed using 1 ml of 0.1% TFA in methanol.
The plate containing eluates was introduced into the concentrator system and taken to dryness. The residues were dissolved in 100 μL of formic acid 0.1%/acetonitrile, 95/5 (v/v) and analysed in the HPLC/MS on a reverse phase analytical column (Jupiter C18, 50×2.0 mm, 5 μm, Phenomenex), using gradient elution (mobile phases A: 0.1% formic acid in water, B: Acetonitrile; from 5% B to 100% B in 2 min.).
Preparation of Plasma Samples
Samples coming from animal treatments were pooled in order to obtain an appropriate volume for the extraction. If the total volume obtained was less than 0.2 ml the appropriate amount of “blank” mouse plasma was added in order to keep the matrix identical to the calibration curve. Samples were than spiked with IS and processed as described for the calibration curve.
Pharmacokinetic Evaluation
PK analysis was performed on pooled data (generally n=2 or 3) using the software PK solutions 2.0™ (Summit Research Service, Montrose, Colo. 81401 USA). The area under the curve AUC was calculated by the linear trapezoidal rule. AUC(t-∞) was estimated as Ct/b (b: elimination rate constant). […] the sum of AUC(0-t) and AUC(t-∞). Elimination half-life was calculated by the linear regression on at least three data points during the elimination phase. The time intervals selected for the half-life determinations were evaluated by the correlation coefficient (r^2), which should be at least above 0.85 and most optimally above 0.96. In case of i.v. administration the initial concentration at tzero was determined by extrapolation of the curve through the first two time points. Finally bioavailability after i.p. administration was calculated from the normalised AUC(0-∞) ration after i.p. versus i.v. administration.

[4] = male, CD-1, mouse, in vivo, ip, 10 mg/kg
[5] = male, CD-1, mouse, in vivo, iv, 2 mg/kg

N=C(N)NCCC[C@@H]1NC(=O)[C@@H]2CSSC[C@H](NC(=O)[C@H](Cc3ccc4ccccc4c3)NC(=O)[C@H](CCCNC(=N)N)NC(=O)[C@H](CCCNC(=N)N)NC(=O)[C@H]3CCCN3C(=O)CNC1=O)C(=O)N[C@@H](Cc1ccc(O)cc1)C(=O)N[C@@H](CCCNC(N)=O)C(=O)N[C@@H](CCCCN)C(=O)N1CCC[C@@H]1C(=O)N1CCC[C@H]1C(=O)N[C@@H](Cc1ccc(O)cc1)C(=O)N[C@@H](CCCNC(=N)N)C(=O)N[C@@H](CCCNC(N)=O)C(=O)N2 [Ex. 51]
Hemolysis at 100 μM [1]: 0% | IC50 [2]: 0.275 µM | times lower normalised Cmax after i.p. administration versus i.v. ([3]; i.p. 10 mg/kg versus i.v. 2 mg/kg, mouse): 45 times | AUC [3, 4]: 1300 ng·h/mL | AUC(0-inf) [3, 4]: 12900 ng·h/mL | AUC(0-t) [3, 4]: 11100 ng·h/mL | Tmax [3, 4]: 2 h | half-life [3, 4]: 2.5 h | level at 0.25 h [3, 4]: 673 ng/mL | level at 0.5 h [3, 4]: 1570 ng/mL | level at 1 h [3, 4]: 2010 ng/mL | level at 2 h [3, 4]: 3160 ng/mL | level at 4 h [3, 4]: 1020 ng/mL | level at 8 h [3, 4]: 519 ng/mL | Cmax ([3]; male, CD-1, mouse, in vivo, ip, 10 mg/kg, Cmax ng/ml): 3160 ng/mL | Cmax ([3]; male, CD-1, mouse, in vivo, ip, 10 mg/kg, Cmax norm.): 316 ng/mL | AUC [3, 5]: 953 ng·h/mL | AUC(0-inf) [3, 5]: 1900 ng·h/mL | AUC(0-t) [3, 5]: 1700 ng·h/mL | Tmax [3, 5]: 0 h | half-life [3, 5]: 2.8 h | level at 0.083 h [3, 5]: 1460 ng/mL | level at 0.25 h [3, 5]: 328 ng/mL | level at 0.5 h [3, 5]: 300 ng/mL | level at 1 h [3, 5]: 80 ng/mL | level at 2 h [3, 5]: 68 ng/mL | level at 3 h [3, 5]: 49 ng/mL | Cmax ([3]; male, CD-1, mouse, in vivo, iv, 2 mg/kg, Cmax ng/ml (extrapolated Cinitial)): 28600 ng/mL | Cmax ([3]; male, CD-1, mouse, in vivo, iv, 2 mg/kg, Cmax observed): 1460 ng/mL | % absorbed (F) (percentage of normalized AUC0-inf. intraperitoneal against normalized AUC0-inf i.v.) ([3]; mouse, in vivo, 2 mg/kg): 100% | % absorbed (F) (percentage of normalized AUC0-inf. intraperitoneal against normalized AUC0-inf i.v.) ([3]; mouse, in vivo, 10 mg/kg): 136% | β ([3]; mouse, in vivo, ip, 10 mg/kg): 0.28 h⁻¹ | β ([3]; mouse, in vivo, iv, 2 mg/kg): 0.24 h⁻¹
